Source: patent US20240091195A1 (SANWA KAGAKU KENKYUSHO CO., LTD., priority 2021, published 2024)

How the values were obtained:
[1] = system: rat pilocarpine-induced salivary secretion model; assay: Pilocarpine-induced salivary secretion, 0.25 cm^2 transdermal absorptive preparations (Test Example 3); conditions: 0.25 cm^2 applied to neck once a day, pilocarpine hydrochloride 0.5 mg/kg i.v.
[2] = system: rat pilocarpine-induced salivary secretion model; assay: Pilocarpine-induced salivary secretion, 0.5 cm^2 transdermal absorptive preparations (Test Example 2); type: in vivo, Hairless rats (HWY/Slc); conditions: 0.5 cm^2 applied to neck once a day, pilocarpine hydrochloride 0.5 mg/kg i.v., n=5
Protocol: Under isoflurane anesthesia, 0.5 cm^2 of each of the transdermal absorptive preparations (including a placebo preparation) containing various glycopyrronium salts produced in accordance with Preparation Production Example 1, Comparative Preparation Production Examples 2 and 4, and Reference Preparation Production Example 1 was applied to the necks of the rats once a day every 24 hours for 2 days.
The amount of saliva secreted was calculated from the difference between the weights of the cotton ball before and after collection of saliva, and taking the average value of the amount of saliva secreted of the placebo group as 100%, the salivary secretion proportion of each individual was calculated from the following (equation).

[3] = dissolved in ethanol, stability after 24 hours

Q: For `C[N+]1(C)CCC(OC(=O)C(O)(c2ccccc2)C2CCCC2)C1` (stereo not drawn) [Glycopyrronium salicylate, 3-(2-cyclopentyl-2-hydroxy-2-phenylacetoxy)-1,1-dimethylpyrrolidium salicylate], which “salivary secretion suppressive effect compared with placebo group” value ([1]; Day 1 of application, listed as glycopyrronium salicylate) is on record?
A: strongest and significant salivary secretion suppressive effect

Q: What about the “salivary secretion suppressive effect compared with placebo group” value ([1]; Day 2 of application, listed as glycopyrronium salicylate) of the same compound?
A: strongest and significant salivary secretion suppressive effect

Q: And the “salivary secretion suppressive effect compared with placebo group” value ([2]; Day 1 of application (23 hours after first application), listed as glycopyrronium salicylate)?
A: significant salivary secretion suppressive effects

Q: What about the “salivary secretion suppressive effect compared with placebo group” value ([2]; Day 2 of application (47 hours after first application)) of the same compound?
A: strongest salivary secretion suppressive effect

Q: Which results are given for `C[N+]1(C)CCC(OC(=O)C(O)(c2ccccc2)C2CCCC2)C1` (stereo not drawn) [Glycopyrronium bromide, (3RS, 2SR)-glycopyrronium bromide]?
A: salivary secretion suppressive effect compared with placebo group ([1]; Day 1 of application, listed as glycopyrronium bromide): did not show any significant effect; salivary secretion suppressive effect compared with placebo group ([1]; Day 2 of application, listed as glycopyrronium bromide): did not show any significant effect; salivary secretion suppressive effect compared with placebo group ([2]; Day 1 of application (23 hours after first application), listed as glycopyrronium-bromide): no significant effect

Q: For `C[N+]1(C)CCC(OC(=O)C(O)(c2ccccc2)C2CCCC2)C1.O=C([O-])c1ccccc1` (stereo not drawn) [Glycopyrronium benzoate, glycopyrronium benzoate], which decomposition in ethanol [3] is on record?
A: 10%

Q: With Glycopyrronium acetate as the compound, how does the decomposition in ethanol [3] read?
A: 20%

Q: Which results are given for `C[N+]1(C)CCC(OC(=O)C(O)(c2ccccc2)C2CCCC2)C1.O=C([O-])CNC(=O)c1ccccc1` (racemic) [Glycopyrronium hippurate, (3RS, 2SR)-glycopyrronium hippurate]?
A: salivary secretion suppressive effect compared with placebo group ([1]; Day 1 of application): significant effect; salivary secretion suppressive effect compared with placebo group ([1]; Day 2 of application): significant effect only on Day 1 of application; salivary secretion suppressive effect compared with placebo group ([2]; Day 1 of application (23 hours after first application)): significant salivary secretion suppressive effects
